# From patent US5637085A, “Method of cancer tumor treatment by slow release delivery of 1,2,4-benzotriazine oxides to tumor site” (priority 1995, dated 1997)
# Several values for one entry are separate records, joined by “and”; a condition that tells them apart may be missing. Identical values can stand only once.
# How the values were obtained:
# [1] = Toxicity, experiment B: mean low and final animal weights as a fraction of the pretreatment weight; type: in vivo, male Balb/c athymic nude mice
# From the text: (§1) Nude mouse xenonaft: Six week old male Balb/c athymic nude mice received subcutaneous injections of 4×10^6 (experiment A) and 5×10^6 (experiment B) U251 cells in the left posterior extremity. Tumors were visible after 6 to 8 days. Tumor sizes ranged from 0.51-1.2 cm^3 at the start of the treatment. […] Mice were sacrificed after tumors reached at least twice their original tumor volume.
# (§2) Systemic Administration of Tirapazamine: The drug was supplied by Sanoff Winthrop, Collegeville, Pa. Tirapazamine was dissolved in physiological saline at a concentration of […] and intraperitoneal (IP) injections were given in a volume of 0.02 ml/g body weight (0.08 mmole/kg). Animals in experiment A received daily injections, and animals in experiment B received injections twice daily over 3 consecutive days for a total of 6 injections.
# (§3) Implantation of Polymer Discs:. For surgical implantation of polymer discs, animals were anesthetized with methoxyflurane, a skin incision was made next to the xenograft, and an empty disc or tirapazamine disc was inserted in the center of the tumor via a single 3-4 mm incision. The incision was closed using wound clips. Contralateral flank polymer discs were placed subcutaneously using the same technique.
# (§4) In Vivo Irradiation: A Mark I Irradiator (Model 68, J. L. Shepherd and Assoc.) was used for in vivo irradiation. The dose to the xenograft was calibrated using TLD dosimetry and confirmed with radiochromic dye media (Gafchromic) mouthed in polystyrene mouse phantoms. The tumor bearing flank was selectively irradiated, with shielding of the mouse trunk and head. In experiment A, irradiation began on the first day of IP tirapazamine injection, and animals received 2 Gy×6 consecutive daily fractions. In experiment B, irradiation and systemic tirapazamine administration began one day following polymer disc implantation and animals received 2 Gy twice daily (separated by 5-6 hours) over 3 consecutive days for a total of 6 fractions. Radiation treatments were given 5-20 minutes following IP drag or saline injections.
# (§5) Tumor Volumetrics: Tumor length (L), width (W), and height (H) were measured twice weekly and tumor volumes were calculated as pi/6×L×W×H. The logarithm of the ratio of this product (V) to the initial product (VO) for each animal was calculated and the mean logarithm of this ratio for each treatment group was plotted versus time. The time of regrowth to twice the original tumor volume (V/VO=2; log V/VO=0.3) for each animal and treatment group was calculated from the plot of log V/VO vs. time. Mean tumor volume doubling time (VDT) was used as the endpoint to determine efficacy of a given treatment arm on U251 xenograft tumors. Each animal was weighed bi-weekly to assess possible toxicity to treatment.
# The weight losses were transient, with all groups exceeding their pretreatment weights prior to sacrifice.
# U251 GBM xenograft [2] = experiment: Experiment A: U251 xenograft response to systemic delivery of tirapazamine (mean tumor volume doubling time); type: in vivo, human U251 in male Balb/c athymic nude mice
# Protocol: (§6) Tumor Cell line: The human GBM cell line (U251) used in the study was obtained from the DCT Tumor Repository, National Cancer Institute. Cells were cultured in Delbecco's MEM/Ham's F-12 nutrient mixture with 10% fetal bovine serum (GIBCO) and […] (penicillin and streptomycin) in 12×80 mm plastic culture dishes or T25 culture flasks. Cells were incubated (37° C.) in a mixture of 5% carbon dioxide and 95% air. Media were changed twice weekly and cells were passaged at confluence with 0.5% trypsin.
# as §1, §2, §4
# as §5, with “Each animal was weighed bi-weekly to assess possible toxicity to treatment.” left out
# [3] = tested on: mouse squamous cell VII tumors; conditions: cited from earlier work
# U251 GBM xenograft [4] = experiment: Experiment B: U251 xenograft response to systemic and intratumoral polymer delivery of tirapazamine (mean tumor volume doubling time); type: in vivo, human U251 in male Balb/c athymic nude mice
# Protocol: as §6, §1, §2
# Tirapazamine Polymer Formulation: 2 mg tirapazamine and 8 mg PCPP:SA polymer were combined in methylene chloride ([…] wt/wt). The solvents were removed by desiccation under vacuum. The tirapazamine containing polymers were then pressed into discs measuring 3 mm in diameter and 1 mm in height. Each disc weighed 10 mg.
# as §3, §4, §5
# Outcomes among experimental groups were compared using the two tailed Student's test.
# Intralesional delivery of tirapazamine by polymer implants: After establishing the antitumor effect of systemic administration of tirapazamine on GBM xenografts, experiment B was done to evaluate intralesional polymer delivery of tirapazamine alone or combined with irradiation. […]
# [5] = tested on: mouse SCCVII and other tumors; conditions: multiple injections in conjunction with fractionated irradiation; cited from earlier work
# [6] = tested on: FSalIC Murine Fibrosarcoma; conditions: SR-4233 just before single-dose cyclophosphamide, carmustine or melphalan; cited from earlier work
# [7] = contralateral flank drug implant and tumor empty implant + radiation, group 4
# [8] = tumor drug implant + IP tirapazamine + radiation, group 7
# [9] = tumor drug implant + IP tirapazamine, no radiation, group 2
# [10] = tumor drug implant + radiation, group 5
# [11] = tumor empty implant + IP tirapazamine + radiation, group 6
# [12] = within one hour of injecting tirapazamine
smiles,measurement,setting,value
"Nc1n[n+]([O-])c2ccccc2[n+]1[O-] [tirapazamine, 3-amino-1,2,4-benzotriazine-1,4-dioxide]",systemic toxicity (weight loss),"[1]; combination of IP and polymer tirapazamine, transient, toxicity primarily associated with the IP treatments",produced systemic toxicity
same,Final body weight/Pretreatment weight (± SEM),[1]; [7],1.08 ± .02
same,Low weight post treatment/Pretreatment weight (± SEM),[1]; [7],0.96 ± .02
same,Final body weight/Pretreatment weight (± SEM),[1]; [8],1.06 ± .03
same,Low weight post treatment/Pretreatment weight (± SEM),[1]; [8],0.85 ± .03
same,Final body weight/Pretreatment weight (± SEM),[1]; [9],1.05 ± .04
same,Low weight post treatment/Pretreatment weight (± SEM),[1]; [9],0.95 ± .01
same,Final body weight/Pretreatment weight (± SEM),[1]; [10],1.06 ± .01
same,Low weight post treatment/Pretreatment weight (± SEM),[1]; [10],0.95 ± .01
same,Final body weight/Pretreatment weight (± SEM),[1]; [11],1.09 ± .03
same,Low weight post treatment/Pretreatment weight (± SEM),[1]; [11],0.89 ± .01
same,effect on mean volume doubling time (VDT),"U251 GBM xenograft [2]; IP tirapazamine alone, no radiation",no effect
same,Mean xenograft tumor volume doubling time (VDT) ± SEM,"U251 GBM xenograft [2]; IP tirapazamine daily × 6 (0.08 mmole/kg) plus radiation 2Gy daily × 6, group 4",35 days and 35 ± 2.5 days
same,Mean xenograft tumor volume doubling time (VDT) ± SEM,"U251 GBM xenograft [2]; IP tirapazamine daily × 6 (0.08 mmole/kg), no radiation, group 2",12 days and 12 ± 0.6 days
same,lengthening of mean VDT,"U251 GBM xenograft [2]; fractionated radiation (2 Gy×6) plus IP tirapazamine, 12 days for fractionated radiation alone",25 days
same,time of return of hypoxic fraction to pretreatment levels,[3]; after injecting tirapazamine,3 to 5 h
same,hypoxic fraction,[3]; [12],0.57%
same,"hypoxic fraction, % of pretreatment levels",[3]; [12],about 7%
same,Mean xenograft tumor doubling time (VDT) ± SEM,"U251 GBM xenograft [4]; contralateral flank drug implant and tumor empty implant + radiation 2Gy bid × 3 days, group 4",16.4 ± 1.57 days
same,growth delay,"U251 GBM xenograft [4]; group 7 vs IP tirapazamine alone plus radiation, P=0.016",11.8 days
same,growth delay,"U251 GBM xenograft [4]; group 7 vs tumor drug implant alone plus radiation, P=0.004",12.8 days
same,growth delay,"U251 GBM xenograft [4]; tumor drug implant + IP tirapazamine + radiation (group 7) vs radiation alone controls, P<0.001",16.5 days
same,Mean xenograft tumor doubling time (VDT) ± SEM,"U251 GBM xenograft [4]; tumor drug implant + IP tirapazamine bid + radiation 2Gy bid × 3 days, group 7",35.8 ± 2.0 days
same,Mean xenograft tumor doubling time (VDT) ± SEM,"U251 GBM xenograft [4]; tumor drug implant + IP tirapazamine bid, no radiation, group 2",10.5 ± .87 days
same,growth delay,"U251 GBM xenograft [4]; tumor drug implant + IP tirapazamine, no radiation vs tumor empty polymer implant (group 1), P=0.15",3.5 days
same,Mean xenograft tumor doubling time (VDT) ± SEM,"U251 GBM xenograft [4]; tumor drug implant + radiation 2Gy bid × 3 days, no IP tirapazamine, group 5",23.0 ± 2.49 days
same,growth delay,"U251 GBM xenograft [4]; tumor drug implant plus radiation (group 5) vs tumor empty implant plus contralateral drug implant with radiation, P=0.055",6.6 days
same,growth delay,"U251 GBM xenograft [4]; tumor drug implant plus radiation (group 5) vs tumor empty polymer implant plus radiation, P=0.24",3.7 days
same,Mean xenograft tumor doubling time (VDT) ± SEM,"U251 GBM xenograft [4]; tumor empty implant + IP tirapazamine bid + radiation 2Gy bid × 3 days, group 6",24.8 ± 3.0 days
same,growth delay,"U251 GBM xenograft [4]; tumor empty implant + IP tirapazamine with radiation (group 6) vs tumor empty implant plus radiation, P=0.15",5.5 days
same,tumor cell kill with fractionated irradiation,[5],increases tumor cell kill while sparing normal tissue
same,cytotoxic effects on tumor cells in combination with alkylating agents,[6],marked dose enhancement leading to synergistic cytotoxic effects on tumor cells
